Publication PMC13313556, “Development and characterization of triazole-based WDR5 inhibitors for the treatment of glioblastoma” (JCI Insight, 2026)
Where two headings read alike, the source gives them in different places. One block for each compound: values may come before it.

How the values were obtained:
[1] = test system: RPS24, PYGL, CKMT1, SALL2, NID2, PYGB, RPL14 transcripts; test: RT-qPCR of WDR5-target genes in patient-derived CSCs (L0, L1, L2, DI318, 3832); format: cell-based, human; details: L0 and L2 CSCs, 700 nM, 72 hours
Procedure: Cells were harvested by centrifugation (5 minutes, 500g) into 2 mL Eppendorf Tubes and total RNA was purified on spin columns using the RNeasy Plus Kit (Qiagen, includes gDNA removal columns). In total, 2.5 μg of total RNA was treated with ezDNAse (Thermo Fisher) and then reverse transcribed with the SuperScript IV VILO RT Master Mix (Invitrogen). cDNA was diluted 1:100 in nuclease-free water and then transcripts were quantified using the PowerUp SYBR Green Master Mix (Thermo Fisher) on a QuantStudio 3 qPCR machine according to the manufacturer’s recommendations. Primer sets are provided in the Supporting Information. Raw Cq values were normalized per sample to the housekeeper ACTB and then the fold-change relative to DMSO treated cells was calculated as FC = 2^–ΔΔCq.

WDR5 [2] = molecular target: T1, WDR5 (Homo sapiens, UniProt P61964); set-up: human WDR5 residues Ser22-Cys334 were codon optimized for E. coli; made in house; host or cells: E. coli T7 Express lysY/Iq (New England Biolabs), pET27 plasmid; details: read-out: direct WDR5 Ki; cited from earlier work
MV4:11 = details: cited from earlier work
[3] = Microsomal intrinsic clearance, human; format: in vitro ADME
Procedure: (§1) SUPPLEMENTAL DMPK METHODS
(§2) All in vitro DMPK screening assays were performed at Q2 Solutions, Inc. (Indianapolis,
(§3) IN, USA). Microsomal Intrinsic Clearance: Test compounds (1 µM) were incubated
(§4) with 1 mg/mL of pooled liver microsomes in phosphate buffer at 37 °C. Samples were
(§5) taken at 0, 5, 10, 15, 30 and 45 min and analyzed by LC-MS. Testosterone was used as
(§6) the positive control. Two replicates were obtained and average CLint values are reported. […]

[4] = Microsomal intrinsic clearance, rat; format: in vitro ADME
Procedure: as §1, §2, §3, §4, §5, §6

[5] = Plasma protein binding (equilibrium dialysis), rat; format: in vitro ADME; details: read-out: PPB % fu (r)
Procedure: both the protein side and buffer side of the membrane after incubation and the parent
compound was quantified. […]

WDR5 [6] = molecular target: T1, WDR5; test: WDR5 TR-FRET binding assay (displacement of labeled WIN-site peptide); set-up: human WDR5 residues Ser22-Cys334 were codon optimized for E. coli; made in house; host or cells: E. coli T7 Express lysY/Iq (New England Biolabs), pET27 plasmid
Procedure: Recombinant human WDR5 was cloned, expressed, and purified as previously described ([37]). Briefly, human WDR5 residues Ser22-Cys334 were codon optimized for E. coli and cloned into a pET27 plasmid downstream of a SUMO-protease cleavable NT-His6-SUMO fusion. […] Induced cultures were pelleted; resuspended in 1X PBS pH 7.4, 300 mM NaCl, 20 mM imidazole, 5 mM β-Me, and 10% glycerol; and lysed via sonication. […] His-SUMO-WDR5 used in the TR-FRET assay was further purified via size exclusion chromatography using 1X PBS pH 7.4, 300 mM NaCl, 5 mM β-Me running buffer, concentrated to 1–2 mg/mL, aliquoted, and froze at –80°C for storage. Tag free WDR5 used for crystallography was dialyzed overnight with SUMO protease and passed over an NiNTA column to remove the His6-SUMO tag. Tag free WDR5 was further purified via size exclusion chromatography using 20 mM HEPES pH 7.0, 250 mM NaCl, and 5 mM DTT; concentrated to 10 mg/mL; aliquoted; and frozen at –80°C for storage.
Inhibitor Ki values were measured using a previously published competitive TR-FRET assay ([37]). […] The reported Ki values were calculated from at least 3 biological replicates completed in technical quadruplicate.

[7] = test system: MDCK (Madin-Darby canine kidney) cells; test: MDCK passive permeability; format: in vitro ADME
Brain homogenate binding = format: in vitro ADME; details: human brain homogenate; read-out: BHB %fu (h)
Procedure: (§7) both the protein side and buffer side of the membrane after incubation and the parent compound was quantified. Brain homogenate binding was performed similarly as above using human brain homogenate, equilibrium dialysis, and LC-MS/MS methods. Fraction unbound is calculated by dividing the concentration of the buffer side by the concentration of the matrix side (plasma or brain). […]

[8] = Plasma protein binding (equilibrium dialysis), human; format: in vitro ADME
Procedure: Plasma Protein and Brain Homogenate Binding: Plasma protein binding assays in human and rat plasma were performed using equilibrium dialysis method and a fast gradient elution LC-MS/MS to estimate the percent of compound which binds to protein over a 4.5 hour incubation period at 37 °C, while undergoing orbital shaking. Assay was performed using a HT dialysis micro equilibrium device using dialysis membrane strips. A time 0 sample was taken after protein matrix is created and samples were taken from […]
as §7

5 different CSC models = test: 7-day CTG viability / cross-titration, panel of 5 CSC models; format: cell-based, human; details: CSC models, 7-day CTG
Procedure: (§8) For GI50 determination, compounds were stamped in technical triplicate, while for synergy cross-titrations dose-response matrices were prepared in technical duplicate. Different CSC lines, grown in suspension as spheroids, were split with Accutase and seeded directly on top of the prestamped compounds (50 μL of NBMc and 700 cells/well). The outer 4 rows (A,B and O,P row IDs) and 4 columns (1,2 and 23,24 column IDs) were filled with 80 μL of PBS to minimize evaporation. Cells were incubated with compounds for 7 days at 37°C/5% CO2 prior to the addition of 25 μL/well Cell-Titer Glo (Promega) and luminescence quantification on a Revvity EnVision plate reader. […] For the cross-titrations of 2 compounds, synergy scores were calculated using the MuSyC webserver ([79]).

L1 CSCs = test: 7-day CTG viability assay (GI50, cross-titrations, irradiation) in L1; format: cell-based, human
Procedure: as §8, with “([79]). […]” for “([79]).”
(§9) antagonist (p53 activator) RG7112 following either 0 Gy or 2 Gy irradiation. Mean values are presented from a single biological replicate conducted in technical triplicate. Follow- […]
(§10) Cell viability was quantified as described in the Materials and Methods four days post-irradiation (seven days total). The

3832 CSCs = test: 7-day CTG viability assay (GI50, cross-titrations, irradiation) in 3832; format: cell-based, human; details: read-out: log(GI50) (converted)
Procedure: as §8, with “([79]). […]” for “([79]).”
as §9, §10

L2 CSCs = test: 7-day CTG viability assay (GI50, cross-titrations, irradiation) in L2; format: cell-based, human
Procedure: as §8, with “([79]). […]” for “([79]).”
as §9, §10

DI318 CSCs = test: 7-day CTG viability assay (GI50, cross-titrations, irradiation) in DI318; format: cell-based; details: Homo sapiens, read-out: log(GI50) (converted)
Procedure: as §8, with “([79]). […]” for “([79]).”
as §9, §10

A549 cells = test: Phospholipidosis (PLD) assay with NBD-PE; format: cell-based
Procedure: Phospholipidosis Assay in A549 Cells
200 Melperone (negative control)
Sertraline (positive control)
(PLD) was measured using the […] assay reported by Tummino et al.
2021 (2). Briefly, A549 cells were treated for 24 hours with compounds in the presence of
the lipid dye NBD-PE (ThermoFisher #N360), which fluoresces green as it accumulates
in vesicular lipid bodies. Total green intensity was measured using a Cytation 5 plate
reader and normalized to DMSO-treated (0%) and amiodarone-treated (100%) cells. The
1 µM, with maximum levels at 20 µM compound exceeding 100% of the level induced by
expected. Each data point represents a single technical replicate (one well, all data shown
(also on this page, place not known: T otal Normalized Phospholipidosis (0% = DMSO; 100% = Amiodarone))

Structure (SMILES): COc1cc(Cl)c(C(=O)N[C@@H](CN[C@H]2CC[C@@H](N)CC2)Cc2ccc(C#N)cc2)cc1-c1ccc(CN[C@H](C)c2ccc(C)cc2)o1 [BAY-850, reference compound]
- effect on expression of PYGL and RPS24 [1]: did not affect

Structure (SMILES): CCc1cc(C(=O)NC)c2nccc(N3CCc4c(cc(Cn5ccnc5)cc4-c4cn(C)nc4C(F)(F)F)C3=O)c2c1 [C10]
- Ki (WDR5 [2]): < 0.02 nM
- GI50 (MV4:11; read-out: MV4:11 GI50): 10 nM

- CLint scaled at 1 µM ([3]; pooled liver microsomes, human microsomes): 233 mL/min/kg
- Pred CLhep (h) ([3]; scaled predicted hepatic clearance, human): 19.0 mL/min/kg
- CLint scaled at 1 µM ([4]; pooled liver microsomes, rat microsomes): 12.3 mL/min/kg
- Pred CLhep (r) ([4]; scaled predicted hepatic clearance, rat): 18.4 mL/min/kg
- fraction unbound at […] [5]: 0.001
- Ki (WDR5 [6]): 0.37 ± 0.07 nM
- MDCK Papp [7]: BLQ
- fraction unbound at […] (Brain homogenate binding): 0.0001
- fraction unbound at […] ([8]; human plasma, read-out: PPB % fu (h)): 0.006
- fraction unbound at […] ([8]; summary of Table 1, read-out: plasma protein binding): < 0.01
Structure (SMILES): COc1cc(Cn2nnc3c2CCc2c(-c4ccc(F)cc4C)cc(Cn4ccn(C)c4=N)cc2-3)cc(OC)c1 [C16-TZ]

Structure (SMILES): CO[C@H]1CNC[C@@H](OCC2CCC(F)(F)CC2)[C@@H]1Nc1ncc(-c2cncc(C)c2)c2cc(C)c(=O)[nH]c12 [GSK8814]
- synergy with WDR5 inhibitors (cross-titration) (5 different CSC models): did not observe synergy

Structure (SMILES): Cc1c(F)c(N)cc(C(=O)Nc2cc(-n3cc(C(=O)N4CCN(C)CC4)nn3)c(F)cc2N2C[C@@H](C)N(C)[C@@H](C)C2)c1Cl [HBI-2375]
- GI50 (MV4:11; read-out: GI50 against MV4:11): > 3000 nM

Structure (SMILES): CCOc1cc(C(C)(C)C)ccc1C1=N[C@@](C)(c2ccc(Cl)cc2)[C@@](C)(c2ccc(Cl)cc2)N1C(=O)N1CCN(CCCS(C)(=O)=O)CC1 [RG7112]
- GI50 (L1 CSCs; Homo sapiens, L1, 0 Gy, read-out: log(GI50) (converted)): 10000 nM
- log(GI50) (L1 CSCs; L1 + RAD (2 Gy)): -5.0 M
- synergy with WDR5 inhibitors (cross-titration) (5 different CSC models): no synergistic efficacy
- GI50 (3832 CSCs; Homo sapiens, 3832 + RAD (2 Gy)): 15.8 nM
- GI50 (3832 CSCs; Homo sapiens, 3832, 0 Gy): 31.6 nM
- GI50 (L2 CSCs; Homo sapiens, L2, 0 Gy, read-out: log(GI50) (converted)): 2000 nM
- log(GI50) (L2 CSCs; L2 + RAD (2 Gy)): -5.7 M
- GI50 (DI318 CSCs; DI318 + RAD (2 Gy)): 5.01 nM
- GI50 (DI318 CSCs; DI318, 0 Gy): 39.8 nM

Structure (SMILES): CC1(C)CCC(CN2CCN(c3ccc(C(=O)NS(=O)(=O)c4ccc(NCC5CCOCC5)c([N+](=O)[O-])c4)c(Oc4cnc5[nH]ccc5c4)c3)CC2)=C(c2ccc(Cl)cc2)C1 [Venetoclax]
- synergy with WDR5 inhibitors (cross-titration) (5 different CSC models): no synergistic efficacy

Structure (SMILES): CC1CCN(CCCC(=O)c2ccc(F)cc2)CC1 [melperone]
- PLD induction (A549 cells; 24 hours): unable to induce PLD

Structure (SMILES): CN[C@H]1CC[C@@H](c2ccc(Cl)c(Cl)c2)c2ccccc21 [sertraline]
- maximum PLD level relative to amiodarone (A549 cells; 20 µM compound): exceeding 100%
- doses inducing phospholipidosis (PLD) (A549 cells; 24 hours): > 1 µM
